The values that follow come from a melting point compilation (Tetko et al.; mined from patent text by program, amines drawn as free bases though some values may be those of a salt).

As usually defined, the melting point is the temperature, or range, at which the solid turns liquid.

As to `CC(=O)NNc1ccc(N(Cc2ccccc2)C(=S)Nc2ccccc2)cc1`, the melting point fell in the range of 114 to 117 °C.

Consider `Cc1nc(C)c(C(C)(O)c2ccoc2)o1` (centres undefined), for which the melting point is 93 to 95 °C. Regarding `O=C1CCN=C(c2ccccc2Cl)c2ccccc21`, the melting point was 135 to 137 °C. In the case of `COc1ccc(-c2c(Cl)c(CN3C(=O)CCC3=O)nc3sc4c(c23)CC(C)(C)C(OCc2ccccc2)C4)cc1` (centres undefined), the melting point fell in the range of 221 to 223 °C. On to `COc1ccc(OP(Oc2ccc(OC)cc2C(C)(C)C)Oc2ccc(OC)cc2C(C)(C)C)c(C(C)(C)C)c1`, for which the melting point was 82 to 86 °C. As for `CCOC(=O)CCN1C(=O)NC(C)(CCc2cc(C(C)(C)C)c(O)c(C(C)(C)C)c2)C1=O` (centres undefined), the melting point amounted to 100 °C. The compound `C=CCOP1(=S)OCc2cc(C)cnc2O1` (centres undefined) gave a melting point of 79 to 80 °C. Turning to `NC(=O)Cn1c(=O)c(=O)[nH]c2ccccc21`, the melting point is > 300 °C. For `Cc1ccc(CC2CCN(C(=O)CNc3ccc4[nH]c(=O)oc4c3)CC2)cc1`, the melting point lay within 212 to 215 °C.

In the case of `CCOC(=O)C(=O)c1cc(OC)c(OCOC)c2c(Cc3ccccc3)cccc12`, the melting point lay within 70 to 72 °C. For `O=C(NC1N=C(c2ccccc2)c2oc3ccccc3c2NC1=O)OCc1ccccc1` (centres undefined), the melting point is > 260 °C. `O=C1NC(=C2CCCC2)Sc2ccccc21` showed a melting point of 190 to 191 °C. `CN(C)C(=CC(=O)C(F)(F)F)NCc1ccc(Cl)nc1` registered a melting point of 85 °C. Compound `O=Cc1cc(N2CCN(Cc3ccccc3)CC2)ccc1O` returned a melting point of 101 to 103 °C. Compound `COc1ccc2cn[nH]c(=O)c2c1` came in with a melting point of 228 to 229 °C. Compound `CCC(CC(N)=O)c1cccc2nc3n(c12)CCCN3c1ccc(Cl)cc1Cl` (centres undefined) came in with a melting point of 132 to 133 °C.

`COCC(=O)C(=NNc1ccccc1F)C(=O)OC` gave a melting point of 121 to 126 °C. With `Cn1c2c(c3ccccc31)CCN1C(=O)CCC21C` (centres undefined), the melting point lay in the range of 132 to 134 °C.

In turn, `COC(=O)c1ccc(CNC(=O)C2Cc3ccccc3N2S(=O)(=O)c2ccc(-c3cccc(C(F)(F)F)c3)cc2)c(OC)c1` (centres undefined) came in with a melting point of 78 to 85 °C. `CC(C)Cc1ccc(C(C)C(=O)Oc2ccc(C(N)=S)cc2)cc1` (centres undefined): the melting point was 121 to 123 °C. With `COc1cc(C(=O)N2CCN(C(=O)C3=Cc4ccc(OC)c(OC)c4CCC3)CC2)cc(OC)c1OC` the figure was 133 to 134 °C. As to `CCc1c(-c2ccc(O)cc2)c2cc(COC)c3cccc1n32`, the melting point is 137 to 141 °C.

The compound `CCn1nnnc1Cc1ccc(NC(=O)/C=C/c2cnn(C)c2-c2ccc(F)cc2)cc1` displayed a melting point of 206 to 207 °C.

`Cc1ccc(=NC#N)n(-c2cccc(C(F)(F)F)c2)c1` showed a melting point of 165 °C. The compound `COCc1ccc2nc(SCCN3CCN(CC(=O)Nc4c(C(C)C)cccc4C(C)C)CC3)oc2c1COC` had a melting point of 96 to 97 °C. Consider `CCCOC(=O)C1=C(N)NC(C)=C(C(=O)OCC)C1c1cccc([N+](=O)[O-])c1` (centres undefined), for which the melting point was 168 °C. `CC(=O)N(C)CC#CCn1ccnc1` gave a melting point of 113 to 115 °C.

In the case of `CC(=O)[NH+]([O-])C[C@@H]1CN(c2ccc(N3CCN(S(C)(=O)=O)CC3)c(F)c2)C(=O)O1` (some centres undefined), the melting point fell in the range of 168 to 170 °C. As to `CC(C)c1ccc(N(C)C(=O)Cn2cnc3[nH]c(=O)n(C)c(=O)c32)cc1`, the melting point fell in the range of 271 to 273 °C. Under `COC(=O)C(=O)c1c(OC)cc(OCCOc2ccc3ccccc3c2)cc1OC` stands 161 to 162 °C; under `O=C(c1ccc(Cl)cc1Cl)C1(n2cncn2)CC1`, 55 to 56 °C; under `CCCCCCCNC(=O)Nc1ccc(F)cc1C(=O)NC1CCN(C(c2ccccc2)c2ccccc2)CC1`, 208 to 210 °C. Compound `COc1c([N+](=O)[O-])cc(C=O)c(Cl)c1O` yielded a melting point of 130 °C. As to `O=C(Nc1cccc(-c2ccnc3c(C(=O)c4cccs4)cnn23)c1)c1ccc(Cl)cc1Cl`, the melting point was 132 to 134 °C. With `CCOC(=O)C1=C(C)NC(c2ncc[nH]2)=NC1c1ccccc1Cl` (centres undefined) the figure was 121 to 125 °C. With `COc1ccc(N(C(=O)c2c3ccccc3nc3ccccc23)S(=O)(=O)c2ccc(CCC(=O)ON3C(=O)CCC3=O)cc2)c(OC)c1` the figure was 105 °C. `COc1cc(C(C)=O)ccc1OCCN1CCN(c2n[nH]c3cc(Cl)ccc23)CC1`: the melting point is 154 to 156 °C.

Consider `FC(F)c1cccc(C#CCCn2nc3ccccc3n2)n1`, for which the melting point lay within 102 to 103 °C.

`CC(C)=NNc1cnn(-c2cccc(C(F)(F)F)c2)c(=O)c1` came in with a melting point of 255 to 257 °C. Take `COC(=O)Nc1cccc(C)c1CNc1cccn2c(CO)c(C)nc12`: the melting point lay in the range of 170 to 172 °C. Under `CC1(C)CCCC(C)(C)N1c1nc(N2CCCC2)cc(N2CCNCC2)n1` stands 134 to 137 °C; under `CCOC(=O)Cn1c2cccccc-2c(C(C)=O)c1=O`, 162 to 165 °C; under `CC1CC(C)(C)C(=O)C=C1Cc1ccc(Cl)cc1` (centres undefined), 76 to 77 °C. `CCN(CC)CCCNC(=O)Cn1ncc(-c2ccc(F)cc2)c1-c1ccccc1` showed a melting point of 82 to 83 °C. Regarding `CC(C)(C)OC(=O)NNC(=O)N1CCN(NC(=O)OCc2ccccc2)C1=O`, the melting point was 195 to 198 °C.

Compound `COC(=O)c1ncnn1Cc1ccc([N+](=O)[O-])cc1` had a melting point of 126 to 130 °C. With `Cc1ccc(Oc2ccc(-c3nnc(N)o3)cc2)c(O)c1`, the melting point fell in the range of 181 to 183 °C. Under `O=c1[nH]c2cc(Cl)c(S(=O)CCN3CCC(Cc4ccccc4)CC3)cc2o1` (centres undefined) stands 190 to 192 °C; under `CCOC(=O)c1cc2c(C=O)ccc(OCc3ccccc3)c2[nH]1`, 131 to 132 °C; under `Oc1ccc2c(c1)CCCC(c1ccccc1)=C2c1ccc(OCCI)cc1`, 229 to 231 °C. Consider `CC(=O)OCC(C(=O)OC(C)(C)C)C(=O)c1ccccc1` (centres undefined), for which the melting point fell in the range of 72 to 74 °C.

Compound `CC(C)(C)NS(=O)(=O)c1ccccc1CCO` yielded a melting point of 43 to 45 °C. In turn, `Cc1ccc(NC(=O)NN(C(=O)c2ccccc2)C(C)(C)C)cc1` had a melting point of 208 to 210 °C. `CC(C)NC1=Nc2ccc(Cl)cc2S(=O)(=O)N1C` had a melting point of 139 to 141 °C.

As for `Cc1nc2c(c(-c3ccccc3)nn2C)c(-c2ccc(F)cc2)c1CO`, the melting point lay in the range of 231 to 236 °C. `CC1CN(N=Cc2cccnc2)C(=O)NN1` (centres undefined) displayed a melting point of 235 to 237 °C.

With `CCn1cc(C(=O)O)c(=O)c2c(C)c(F)c(F)cc21`, the melting point was > 300 °C.

Turning to `Cc1[nH]c(=O)c(C#N)cc1-c1ccccc1`, the melting point is 280 to 290 °C.

Regarding `N#CC1(C#N)C2CCC(C2)C1(Cl)Cl` (centres undefined), the melting point was 148 °C. As for `CC(C)=CCOc1c(I)cc(C(C)O)nc1Cl` (centres undefined), the melting point lay within 80 to 81 °C. `CN1CCN(C(=O)Oc2ccc([N+](=O)[O-])cc2)CC1` showed a melting point of 134 to 135 °C. `Cc1cc2c(c3c1NC(=O)C(C)(C)C3)OC(C)(CBr)C2` (centres undefined): the melting point was in the range of 158 to 160 °C. The compound `CO/C=C(\Oc1cc(C#C[Si](C)(C)C)ccc1C)C(=O)OC` had a melting point of 125 °C. With `O=Cc1cnc(-c2ccc(C(CC3CCOCC3)c3ccc(S(=O)(=O)C4CC4)cc3)[nH]2)s1` (centres undefined), the melting point lay within 175 to 176 °C.
